This is an account of results in PMC11434739, “CAVPENET Peptide Inhibits Prostate Cancer Cells Proliferation and Migration through PP1γ-Dependent Inhibition of AKT Signaling” (Pharmaceutics, 2024).

Where a SMILES comes first, the peptide text is derived from it.

The conditions of data set [1]: phase II clinical trial; cited from earlier work. From the text: Despite the apparent anticancer role of CPT1, by reducing the availability of fatty acids, excess CPT1 seems to support PCa cell proliferation by an ROS-mediated stress phenotype. Moreover, a CPT1 knockout was associated with inhibition of PCa cell invasion, becoming an important therapeutic target for PCa. In this context, different compounds have been produced to target this protein [52]. […] Alternatively, ...

Data set [2] concerns several types of cells, including different tumor cell lines. As to conditions: cited from earlier work.
In the next data set the test system is PC-3 cells. Kind of data set: Microscopic evaluation of cellular uptake (live-cell imaging). To be noted: TAMRA-labeled bioportide 5 µM, 1 h, 37 °C, 5% CO2, phenol red-free RPMI-1640, live-cell fluorescence imaging (EVOS M5000), 3 independent experiments. The data set is classed as cell-based, Human. The method, then: (§1) To evaluate the intracellular accumulation of bioportides, PC-3 and LnCaP cells were seeded in a 24-well plate (6.00 × 10^4 and 7.50 × 10^4 cells/well, respectively) and incubated for 24 h at 37 °C under a 5% CO2 atmosphere. After washing cells with phosphate buffered saline (PBS-1×), the growth medium was exchanged for phenol red-free RPMI-1640 medium containing 5µM of TAMRA-labeled CAVPENET or CAVPENET control and incubated for 1 h. After the incubation time, the cells were washed in phenol red-free RPMI-1640 medium and observed by EVOS^TM M5000 Imaging, and photos were obtained. Live-cell imaging was used to avoid fixation artifacts. Untreated cells were included as background reading.
(§2) Figure 1 Translocation of CAVPENET control and CAVPENET bioportides into (A) PC-3 and (B) LnCaP cells. PCa cells (PC-3 and LnCaP) were incubated with TAMRA-labeled bioportides (5 µM) for 1 h at 37 °C and 5% CO2 atmosphere. Representative images from 3 independent experiments are represented. DIC: differential interference contrast. Scale bar: 150 μm.

In another data set the test system is LnCaP cells. Described as above. As to conditions: TAMRA-labeled bioportide 5 µM, 1 h, 37 °C, 5% CO2, phenol red-free RPMI-1640, live-cell fluorescence imaging (EVOS M5000), 3 independent experiments. The class given is cell-based, Human. As for the experimental part: as §1, §2
The next data set has as its system cancer cells. To be noted: cited from earlier work; for cancer cell apoptosis: cancer cells. As for the experimental part:
Targeting protein phosphorylation has long been explored as a strategy for cancer treatment. For instance, several kinase inhibitors have been approved by the FDA as anticancer therapies. In the context of phosphatases, targeting the PP1 active site was one of the earliest proposed approaches for anticancer therapeutic development. The potential therapeutic effect of PP1 inhibitors tautomycin and calyculin A was evaluated in cancer cells.

Take `CCOC(=O)[C@@]1(CCCCCCOc2ccc(Cl)cc2)CO1` [Etomoxir]: in data set [1], the hepatotoxicity entry is on record as “hepatotoxicity hampered definitive testing”. Regarding RQIKIWFQNRRMKWKK [Penetratin], in data set [2], the “toxic effects in cells” value is reported as “absence of toxic effects”. Regarding `CC[C@H](C)[C@H](NC(=O)[C@H](CCCCN)NC(=O)[C@@H](NC(=O)[C@@H](N)C(C)C)C(C)C)C(=O)N[C@@H](CC(=O)O)C(=O)N[C@@H](Cc1ccccc1)C(=O)N[C@@H](CCC(=O)O)C(=O)N[C@@H](CC(=O)O)C(=O)N[C@@H](CCCNC(=N)N)C(=O)N[C@@H](CCC(N)=O)C(=O)N[C@H](C(=O)N[C@@H](CCCCN)C(=O)N[C@H](C(=O)N[C@@H](Cc1c[nH]c2ccccc12)C(=O)N[C@@H](Cc1ccccc1)C(=O)N[C@@H](CCC(N)=O)C(=O)N[C@@H](CC(N)=O)C(=O)N[C@@H](CCCNC(=N)N)C(=O)N[C@@H](CCCNC(=N)N)C(=O)N[C@@H](CCSC)C(=O)N[C@@H](CCCCN)C(=O)N[C@@H](Cc1c[nH]c2ccccc12)C(=O)N[C@@H](CCCCN)C(=O)N[C@@H](CCCCN)C(N)=O)[C@@H](C)CC)[C@@H](C)CC` [CAVPENET] (H-VVKIDFEDRQIKIWFQNRRMKWKK-NH2), the cellular internalization result in the data set on PC-3 cells and in the data set with LnCaP cells was “demonstrated cellular internalization” throughout. With `COC[C@@H]([C@H](O)[C@H](O)C(=O)NCC[C@H](C)c1nc(/C=C/C[C@@H]2O[C@]3(C[C@@H](O)[C@@H]2C)O[C@H]([C@H](C[C@H](O)[C@H](C)[C@H](O)[C@H](C)/C=C(C)/C(C)=C/C=C/C(C)=C\C#N)OC)[C@H](OP(=O)(O)O)C3(C)C)co1)N(C)C` [calyculin A], in the data set with cancer cells, the cancer cell apoptosis result is listed as “effectiveness in causing cancer cell apoptosis” and the toxic effects result is “significant toxic effects”.

With `CC[C@H](C)[C@H](NC(=O)[C@H](Cc1ccccc1)NC(=O)[C@H](CC(=O)O)NC(=O)[C@@H](NC(=O)[C@@H](N)C(C)C)C(C)C)C(=O)N[C@@H](CCCCN)C(=O)N[C@@H](CCC(=O)O)C(=O)N[C@@H](CC(=O)O)C(=O)N[C@@H](CCCNC(=N)N)C(=O)N[C@@H](CCC(N)=O)C(=O)N[C@H](C(=O)N[C@@H](CCCCN)C(=O)N[C@H](C(=O)N[C@@H](Cc1c[nH]c2ccccc12)C(=O)N[C@@H](Cc1ccccc1)C(=O)N[C@@H](CCC(N)=O)C(=O)N[C@@H](CC(N)=O)C(=O)N[C@@H](CCCNC(=N)N)C(=O)N[C@@H](CCCNC(=N)N)C(=O)N[C@@H](CCSC)C(=O)N[C@@H](CCCCN)C(=O)N[C@@H](Cc1c[nH]c2ccccc12)C(=O)N[C@@H](CCCCN)C(=O)N[C@@H](CCCCN)C(N)=O)[C@@H](C)CC)[C@@H](C)CC` [CAVPENET control] (H-VVDFIKEDRQIKIWFQNRRMKWKK-NH2), the cellular internalization result in the data set with PC-3 cells and in the data set on LnCaP cells was “demonstrated cellular internalization” in each case. On to `CO[C@H]([C@H](O)CC(=O)[C@@H](C)[C@@H](O)CC[C@@H](C)[C@@H]1O[C@]2(CC[C@@H](C)[C@H](CC[C@H](C)C(C)=O)O2)CC[C@@H]1C)[C@H](OC(=O)C[C@@H](O)C1=C(C)C(=O)OC1=O)C(C)C` [tautomycin], for which, in the data set with cancer cells, the cancer cell apoptosis result was “effectiveness in causing cancer cell apoptosis” and the toxic effects entry was “significant toxic effects”.
